From a melting point compilation (Tetko et al.; mined from patent text by program, amines drawn as free bases though some values may be those of a salt)

SMILES | melting point
c1ccc(-n2c(C3=NCCN3)cc3ccccc32)cc1 | 180 to 182 °C
O=C(O)[C@@H]1CCCN1C(=O)C1CCCCN1 (some centres not stated) | 181 °C
CSc1cc(C)cc(C)c1C=NO | 115 to 117 °C
COc1cc(-c2cccc(Cl)c2)c2cc(C(O)(c3ccc(Cl)cc3)c3cncn3C)cc(NC(C)=O)c2n1 (configuration not stated) | 143 °C
CSC(=NCCSCc1ncccc1Cl)NC#N | 120 to 121 °C
O=[N+]([O-])c1ccc(Cl)cc1NN1CCOCC1 | 155 °C
COc1ccc(C(=O)Nc2ccc3ccc(Oc4ccccc4F)nc3n2)cc1 | 208 °C
Cc1cccc(C(=O)Cc2ccnc(NC(=O)c3ccccc3)c2)c1 | 67 to 69 °C
N=C(NS(=O)(=O)C=Cc1ccc([N+](=O)[O-])cc1)c1ccc2ccccc2c1 | 180 to 182 °C
CC(C)Cn1c(CNC(=O)OC(C)(C)C)c(-c2ccccc2)c2cc(OCc3ccccc3)ccc2c1=O | 141 to 142 °C
COc1cc(C(=O)NS(=O)(=O)c2ccccc2Cl)ccc1Cc1cn(C)c2ccc(CCNC(=O)N(C)C)cc12 | 208 to 211 °C
Cc1ccsc1-c1[nH]nc2c1C(=O)c1c(NC(N)=O)cccc1-2 | 270 °C
CCCC(O)c1cc2c(cc1C)OCO2 (configuration not stated) | 65.5 to 66.5 °C
CC(=O)Nc1cc(S(=O)(=O)c2ccccc2)ccc1NC(=O)C(C)(O)C(F)(F)F (configuration not stated) | 205 to 207 °C
CNCCn1nc2c3c(c(Cl)ccc31)C(=O)c1c(OCc3ccccc3)ccc(OCc3ccccc3)c1-2 | 171 to 176 °C
Nc1nc2c(c(Nc3cccc(Cl)c3)n1)-c1ccccc1C2 | 224 to 225 °C
CC(=O)OC1CSC(Oc2ccccc2-c2ccncc2)C(OC(C)=O)C1OC(C)=O (configuration not stated) | 165 °C
O=C(CCCCCCC(=O)N1CCN(c2cccc(F)c2)CC1)NO | 149 to 150 °C
Cc1ccc(-c2cccc(/C=C/C(=O)Nc3ccc(CN(C)CC#N)cc3)c2)cc1 | 163 to 165 °C
CCc1cccc(-c2nc(C3CCCCC3)n(C)n2)n1 | 79.2 °C
CC(C)c1ccc(-n2nnc(-c3ccc(O)cc3)n2)cc1 | 158 to 160 °C
CCc1cc2ccccc2c(CNC(=O)c2cc(OC)c(OC)c(OC)c2)n1 | 175 to 176 °C
NS(=O)(=O)c1cccc(-c2cc(-c3nc(-c4ccc(F)c(F)c4)cc(C(F)(F)F)n3)ccn2)c1 | 234 °C
CCOC(=O)CCc1cn(Cc2ccc(OCc3nc(-c4ccco4)oc3C)cc2)nc1O | 145 to 146 °C
CC(=O)Oc1cc2c(cc1C=O)C1CCC3(C)C(O)CCC3C1CC2 (configuration not stated) | 73 to 75 °C

SMILES | melting point
Cc1c(C)c2c(c(C)c1O)CCC(C)(CNCCc1ccc(N=C(N)c3cccs3)cc1)O2 (configuration not stated) | > 230 °C
CCC(Oc1ccc(CCC(=O)c2ccc(-c3ccc(C(F)(F)F)cc3)s2)cc1Br)C(=O)O (configuration not stated) | 126 to 128 °C
O=C1NC(=O)c2c1cc1ccc3c(c1c2-c1ccc(Br)cc1)OCO3 | 324 to 327 °C
CCCN(CCC)CCOc1ccc(Cn2c(-c3ccc(O)cc3)c(C)c3cc(O)ccc32)cc1 | 83 to 86 °C
O=[N+]([O-])c1cccc(CN2CCC(c3cc(-c4ccc(Cl)cc4)[nH]n3)CC2)c1 | 174 to 176 °C
C=CCOc1ccc2c(C)cc(=O)oc2c1C(=O)C=Cc1cccc(OC)c1 | 61 to 63 °C
O=C1CCc2cc(C(O)c3ccccc3)ccc2N1 (configuration not stated) | 175 °C
CCCCNc1cc(CNC(=O)OCC)cc(S(N)(=O)=O)c1Oc1ccccc1 | 105 to 107 °C
CCOC(=O)CCc1nnc(-c2ccc3c(c2)CCO3)o1 | 81 to 82 °C
CC(=O)N1CCC(=O)C(C(c2ccc(F)cc2)c2ccc(F)cc2)C1 (configuration not stated) | 146 to 147 °C
Fc1ccc(-c2ccn(C3CC4CCC(C3)N4)c2-c2ccncc2)cc1 (configuration not stated) | 204 to 205 °C
O=Cc1cccc(/C=C/c2nc(C3CCC3)cs2)c1 | 78 to 80 °C
CCN(CC)CCNC(=S)NC(=O)c1ccccc1 | 54 to 56 °C
CCCCCCCCCCCCNC(=O)c1cc(Br)c(OCCn2ncnn2)c(-c2cccc(C(F)(F)F)c2)c1 | 75.6 to 76.2 °C
O=C(O)C1Oc2ccccc2Cc2ccccc2O1 | 153 to 157 °C
Nc1ccccc1SCc1ncon1 | 57 °C
CC(C)NC1CCCCC1O (configuration not stated) | 54 to 55 °C
OCc1cc2cc(-c3ccccc3)ccc2o1 | 134 to 135 °C
O=C(c1ccccc1)c1cc(Cl)cc2c1S(=O)CC2C(=O)O (configuration not stated) | 172 to 174 °C
CC1=C(C(=O)OC(C)(C)C)C(c2ccc(F)cc2)C(C(=O)OC(C)(C)C)=C(C)N1 | 149 to 150 °C
CC(=O)n1c(SC(F)(F)F)cc(-c2ccc(F)cc2)c1-c1ccc(F)cc1 | 75 to 76 °C
Cc1ccc(I)c(CC(=O)OC(C)C)c1 | 48 to 50 °C
COC(=O)[C@H]1[C@@H]2CC[C@@](NC(=O)OC(C)(C)C)(C(=O)O)[C@@H]21 | 164 to 165 °C
CC(C)(C)OC(=O)N[C@H]1CC[C@H](CCN2CCN(c3cc(C#N)cc(C(F)(F)F)c3)CC2)CC1 | 139 to 140 °C
COc1cc2ccc3c4cc(OC)c(OC)cc4nc(C)c3c2cc1OC | 255 to 257 °C

SMILES | melting point
CCC1C(C)=NN=C(c2ccc(OC)c(OC)c2)c2cc(OC)c(O)cc21 (configuration not stated) | 210 to 212 °C
O=C(N[C@H]1CCN(CCc2ccc(F)cc2)C1)C(c1ccccc1F)c1ccccc1F | 107 to 108 °C
CCCCn1nc(SCc2ccc(OC)cc2)c(C(=O)O)c1Cc1cc2c(cc1Cl)OCO2 | 181 °C
CCCCc1nc2ccccc2n1Cc1ccc(-c2ccccc2-c2nnn[nH]2)cc1 | 230 to 232 °C
O=C(NNC(=O)C(F)(F)F)c1ccccc1 | 153 to 154 °C
COc1ccc(S(=O)(=O)C(C)(Cc2ccc(OCCN3CCCCC3)cc2)C(=O)NO)cc1 (configuration not stated) | 98 °C
CCOC(=O)c1c[nH]c2nc(Nc3ccc(C)c(Cl)c3)nn2c1=O | > 340 °C
CN(C)c1ccc(C(=O)Nc2cc(C(=O)NCc3ccccc3)ccn2)cc1 | 160 to 165 °C
CCOC(=O)C1=C(C)NC(CO)=C(C(=O)OCC)C1c1ccccc1[N+](=O)[O-] (configuration not stated) | 112 to 113 °C
COC(=O)Nc1cccc(F)c1I | 80 to 82 °C
Cc1cc(C)nc(NC(=O)Cc2ccsc2)c1 | 123 to 124 °C
CC1CCC(=NN)c2ncc(C(=O)NN)c(=O)n21 (configuration not stated) | 219 to 220 °C
CCCCNc1c(C(=O)OCC)cnc(O)c1C(C)=O | 134 to 136 °C
CCC12CCC3=C(CCc4cc(OC(C)=O)ccc43)C1=CCC2=O (configuration not stated) | 122 to 124 °C
COC(=O)c1ccc(COc2cc3c(=O)n(-c4ccc(NC(=O)OC(C)(C)C)cc4)c(C(=O)OC)c(-c4cc(OC)c(OC)c(OC)c4)c3cc2OC)cc1 | 197 to 199 °C
O=[N+]([O-])c1ccc(Oc2ccc(C(F)(F)F)cc2Cl)cc1Oc1ccc(C(F)(F)F)cc1Cl | 111 to 113 °C
CNc1cc(SC2CCN(C)CC2)c(Cl)cc1[N+](=O)[O-] | 102 °C
CC(=O)c1ccc2c(c1)C1(c3ccccc3-2)c2ccccc2-c2ccc(C(C)=O)cc21 | 255 to 257 °C
O=c1cc(-c2ccccc2)n(-c2ccccc2Cl)c(-c2ccccc2)c1Cl | 230 to 233 °C
O=C(Cl)CN1C(=O)C(Cl)=C(Cl)C1=O | 102 to 103 °C
CC(=O)OC1C(=O)N(c2nnc(C(C)(C)C)s2)C(=O)N1C (configuration not stated) | 168 °C
C=CCN(C(=O)OCc1ccccc1)c1cc(F)c(-c2cccnc2)c(F)c1 | 92 to 93 °C
CN1Cc2c(C(=O)OC(C)(C)C)ncn2-c2ccccc2C1=O | 216 to 217 °C
O=C1Nc2ccccc2N(C(=O)CN2CCCCC2CN2CCCC2)c2cscc21 (configuration not stated) | 205 to 207 °C
O=C(O)c1c(F)c(Cl)c(O)c(Cl)c1F | 102 to 105 °C

SMILES | melting point
Cc1ccc(S(=O)(=O)OC(=O)c2cccc(C(=O)OS(=O)(=O)c3ccc(C)cc3)c2)cc1 | 172 to 178 °C
COc1cc(-c2cccs2)cc(OC)c1C=O | 168 to 170 °C
CC(C)=CCOc1ccc2c(=O)c(C)c(-c3ccccc3)oc2c1C(=O)C=Cc1cccs1 | 158 to 160 °C
CC1(C)OC(=O)Nc2ccc(-c3cc(Cl)cc(Cl)c3)cc21 | 245 to 246 °C
CC(SC1COC(c2ccc(C(=O)Nc3ccc(SC(F)(F)F)cc3)cc2)OC1)C(O)(Cn1cncn1)c1ccc(F)cc1F (configuration not stated) | 95 °C
COC(=O)C1=C(C)NC(C)=C(C(=O)OC)C1c1ccccc1COC(C)=O | 149 to 151 °C
N#Cc1cnc2ccsc2c1Nc1ccc(Cl)cc1Cl | 198 to 200 °C
CCc1cccc(C)c1CNc1cc(Br)cc2c1nc(C)n2COCc1ccccc1 | 117 to 119 °C
CCNC1CC=C(c2c[nH]c3ccc(NC(=N)c4cccs4)cc23)CC1 (configuration not stated) | 190 to 192 °C
CN1CCN(C(=O)CN2C(=O)C(NC(=O)OCc3ccccc3)N=C(c3ccccc3)c3ccccc32)CC1 (configuration not stated) | 200 to 202 °C
CNS(=O)(=O)Oc1ccccc1OC | 68 to 71 °C
O=[N+]([O-])c1cnc2cc(Cl)ccc2c1Cl | 165 to 167 °C
CC(C)(C)Nc1c(NCc2cc(Cl)ccc2Cl)c(=O)c1=O | 236 °C
CN(C)c1ccccc1CSC1=NC(=O)C(C)(C)N1 | 113 to 115 °C
COc1ccc(C2COc3c(ccc(O)c3C)C2)cc1OC (configuration not stated) | 125 to 127 °C
Cc1cc(NC(=O)OC(C)(C)C)c([N+](=O)[O-])cc1I | 99 to 100 °C
CS(=O)(=O)c1ccc(C(=O)NCc2ccc3c(c2)CN(C2CCC(=O)NC2=O)C3=O)cc1 (configuration not stated) | 260 to 262 °C
CC(C)(C)OC(=O)N1CCC(c2c(F)cc(N3C[C@H](COS(C)(=O)=O)OC3=O)cc2F)CC1 | 125 to 126 °C
CN(Cc1ccc(NC(=O)C2=Cc3cc(OCc4cccnc4)ccc3S(=O)(=O)CC2)cc1)C1CCOCC1 | 225 to 229 °C
O=C1OC(CCCCN2CCN(c3ccccc3)CC2)CN1c1ccccc1 (configuration not stated) | 83 to 85 °C
CCCN(CCC)Cc1csc(-c2ncn3c2[C@@H]2CCN2C(=O)c2c(Cl)cccc2-3)n1 | 200 to 201 °C
COC(=O)c1c[nH]c(CCC2CNc3nc(NC(=O)C(C)(C)C)nc(O)c3C2)c1 (configuration not stated) | > 260 °C
